The target in one test is T1, SYK kinase (Homo sapiens, UniProt P43405).
T1 construct: purchased Invitrogen, Carlsbad
Kind of test: SYK assay (OMNIA Kinase Assay, Invitrogen). As to conditions: apparent Ki calculated from the IC50 using the Cheng-Prusoff equation; 1 mM ATP, 10 μM Peptide Substrate; read-out: SYK Activities: Ki. The test is classed as biochemical. In short, it runs like this:
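Continuous SOX-fluorescence (Omnia) readout of Tyr 7 peptide (10 μM) phosphorylation with 1 mM ATP and 0.2 mM DTT at 30° C, started by SYK addition. Fluorescence (λex 360/λem 485 nm) was read every 30 s for 30 min. IC50 from velocity vs concentration; apparent Ki via Cheng-Prusoff.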

A further test concerns the target MYLK (Homo sapiens, UniProt Q15746). The test is described as follows: MYLK assay (LanthaScreen Eu Kinase Binding Assay). The procedure: In the assay LanthaScreen™ Eu Kinase Binding Assay by Invitrogen Corporation (Carlsbad) the effect of invention of a compound on the phosphorylation is determined by measurement of fluorescence intensity emission ratio based on the binding and displacement of a proprietary, Alexa Fluor® 647-labeled, ATP-competitive kinase inhibitor scaffold (kinase tracer) to the kinase of interest as described above.
To the wells of an 384 well small volume plate (Greiner, Frickenhausen) are added (i) the compound under test in 5% DMSO/distilled water (5 μl), (ii) 5 μl of the kinase antibody mixture resulting in a final concentration 5 nM MYLK, 2 nM EU-Anti-GST antibody in 1× kinase buffer A. The reaction was started with addition of (iii) 5 μl resulting in a final concentration of 30 nM tracer 236. The assay plate was incubated at RT for 1 h and fluorescence intensitiy readings were collected using a TECAN M1000 at two wavelengthes of λex 340/λem 615 nm and λex 340/λem 665 nm with a delay time of 100 μs and an integration time of 200 μs after 60 minutes. The emission ratio was calculated by division of the acceptor/tracer emission ([…]) by the antibody/donor emission ([…]). The inhibitor concentration was plotted versus the emission ratio to determine the IC50 using XLFit 5.0 (IDBS, Guildford) to fit to a sigmoidal dose response curve with a variable slope.
(In TR-FRET formats the signal depends on donor and acceptor labels being close together.)

A further test deals with LRRK2 (Homo sapiens, UniProt Q5S007). Kind of test: LRRK2 assay (LanthaScreen Eu Kinase Binding Assay). The method, boiled down:
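Kinase binding was detected by europium anti-tag antibody FRET with a competing tracer, so inhibitor binding lowers the FRET signal. IC50 came from a variable-slope sigmoidal fit of emission ratio against inhibitor concentration.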

[1] abbreviates: 5 nM MYLK, 30 nM tracer 236, RT 1 h, read-out: MYLK Activites: IC50.
[2] abbreviates: 5 nM LRRK2, 10 nM tracer 236, RT 1 h, read-out: LRRK2 Activites: IC50.
Setting [3] is: LRRK2 Activites: IC50, 5 nM LRRK2, 10 nM tracer 236, RT 1 h.

A word on the IC50: it is the concentration that gives 50% inhibition.

Like-named read-outs stand apart in the source and are kept apart here.

Chain of LRRK2 (Q5S007 970-2527 limits assumed): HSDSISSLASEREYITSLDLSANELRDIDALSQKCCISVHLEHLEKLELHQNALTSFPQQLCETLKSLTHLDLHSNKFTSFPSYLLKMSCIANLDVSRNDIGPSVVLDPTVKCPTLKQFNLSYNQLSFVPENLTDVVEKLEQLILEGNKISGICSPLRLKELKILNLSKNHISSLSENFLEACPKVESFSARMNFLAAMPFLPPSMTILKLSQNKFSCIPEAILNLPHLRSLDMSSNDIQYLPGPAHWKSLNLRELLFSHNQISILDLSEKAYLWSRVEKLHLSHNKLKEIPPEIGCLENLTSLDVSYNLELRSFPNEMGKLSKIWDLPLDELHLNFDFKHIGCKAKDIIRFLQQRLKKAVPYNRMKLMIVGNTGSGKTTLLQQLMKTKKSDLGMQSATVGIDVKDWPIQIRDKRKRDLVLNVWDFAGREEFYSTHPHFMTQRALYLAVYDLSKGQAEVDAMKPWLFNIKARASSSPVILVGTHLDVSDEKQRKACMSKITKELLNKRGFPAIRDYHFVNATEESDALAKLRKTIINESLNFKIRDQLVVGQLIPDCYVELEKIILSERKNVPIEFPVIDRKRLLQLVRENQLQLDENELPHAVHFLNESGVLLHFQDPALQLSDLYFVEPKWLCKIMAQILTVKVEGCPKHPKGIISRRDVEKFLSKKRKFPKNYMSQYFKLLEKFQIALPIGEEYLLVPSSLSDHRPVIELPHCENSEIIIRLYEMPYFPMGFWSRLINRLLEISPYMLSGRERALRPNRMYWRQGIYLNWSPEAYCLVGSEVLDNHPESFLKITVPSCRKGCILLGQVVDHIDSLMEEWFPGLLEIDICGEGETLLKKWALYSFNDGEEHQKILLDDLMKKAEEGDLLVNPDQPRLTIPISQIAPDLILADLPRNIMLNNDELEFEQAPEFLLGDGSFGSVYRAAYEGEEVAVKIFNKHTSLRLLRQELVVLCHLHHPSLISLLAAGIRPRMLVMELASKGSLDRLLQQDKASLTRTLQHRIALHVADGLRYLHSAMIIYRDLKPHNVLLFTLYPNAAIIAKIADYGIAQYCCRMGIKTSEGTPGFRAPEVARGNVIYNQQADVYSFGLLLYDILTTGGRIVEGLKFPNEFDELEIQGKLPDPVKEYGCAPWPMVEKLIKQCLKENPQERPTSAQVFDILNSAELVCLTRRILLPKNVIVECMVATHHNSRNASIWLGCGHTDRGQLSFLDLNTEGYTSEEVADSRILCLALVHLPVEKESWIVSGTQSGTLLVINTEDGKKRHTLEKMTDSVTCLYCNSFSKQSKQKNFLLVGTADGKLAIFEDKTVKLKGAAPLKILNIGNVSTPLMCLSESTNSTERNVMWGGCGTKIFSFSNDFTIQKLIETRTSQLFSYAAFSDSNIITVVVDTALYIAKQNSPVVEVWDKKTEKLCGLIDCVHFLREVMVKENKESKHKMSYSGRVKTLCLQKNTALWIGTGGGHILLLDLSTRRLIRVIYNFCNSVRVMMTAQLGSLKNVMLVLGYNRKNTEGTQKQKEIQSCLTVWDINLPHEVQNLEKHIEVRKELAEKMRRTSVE
Chain of MYLK (Q15746 whole entry): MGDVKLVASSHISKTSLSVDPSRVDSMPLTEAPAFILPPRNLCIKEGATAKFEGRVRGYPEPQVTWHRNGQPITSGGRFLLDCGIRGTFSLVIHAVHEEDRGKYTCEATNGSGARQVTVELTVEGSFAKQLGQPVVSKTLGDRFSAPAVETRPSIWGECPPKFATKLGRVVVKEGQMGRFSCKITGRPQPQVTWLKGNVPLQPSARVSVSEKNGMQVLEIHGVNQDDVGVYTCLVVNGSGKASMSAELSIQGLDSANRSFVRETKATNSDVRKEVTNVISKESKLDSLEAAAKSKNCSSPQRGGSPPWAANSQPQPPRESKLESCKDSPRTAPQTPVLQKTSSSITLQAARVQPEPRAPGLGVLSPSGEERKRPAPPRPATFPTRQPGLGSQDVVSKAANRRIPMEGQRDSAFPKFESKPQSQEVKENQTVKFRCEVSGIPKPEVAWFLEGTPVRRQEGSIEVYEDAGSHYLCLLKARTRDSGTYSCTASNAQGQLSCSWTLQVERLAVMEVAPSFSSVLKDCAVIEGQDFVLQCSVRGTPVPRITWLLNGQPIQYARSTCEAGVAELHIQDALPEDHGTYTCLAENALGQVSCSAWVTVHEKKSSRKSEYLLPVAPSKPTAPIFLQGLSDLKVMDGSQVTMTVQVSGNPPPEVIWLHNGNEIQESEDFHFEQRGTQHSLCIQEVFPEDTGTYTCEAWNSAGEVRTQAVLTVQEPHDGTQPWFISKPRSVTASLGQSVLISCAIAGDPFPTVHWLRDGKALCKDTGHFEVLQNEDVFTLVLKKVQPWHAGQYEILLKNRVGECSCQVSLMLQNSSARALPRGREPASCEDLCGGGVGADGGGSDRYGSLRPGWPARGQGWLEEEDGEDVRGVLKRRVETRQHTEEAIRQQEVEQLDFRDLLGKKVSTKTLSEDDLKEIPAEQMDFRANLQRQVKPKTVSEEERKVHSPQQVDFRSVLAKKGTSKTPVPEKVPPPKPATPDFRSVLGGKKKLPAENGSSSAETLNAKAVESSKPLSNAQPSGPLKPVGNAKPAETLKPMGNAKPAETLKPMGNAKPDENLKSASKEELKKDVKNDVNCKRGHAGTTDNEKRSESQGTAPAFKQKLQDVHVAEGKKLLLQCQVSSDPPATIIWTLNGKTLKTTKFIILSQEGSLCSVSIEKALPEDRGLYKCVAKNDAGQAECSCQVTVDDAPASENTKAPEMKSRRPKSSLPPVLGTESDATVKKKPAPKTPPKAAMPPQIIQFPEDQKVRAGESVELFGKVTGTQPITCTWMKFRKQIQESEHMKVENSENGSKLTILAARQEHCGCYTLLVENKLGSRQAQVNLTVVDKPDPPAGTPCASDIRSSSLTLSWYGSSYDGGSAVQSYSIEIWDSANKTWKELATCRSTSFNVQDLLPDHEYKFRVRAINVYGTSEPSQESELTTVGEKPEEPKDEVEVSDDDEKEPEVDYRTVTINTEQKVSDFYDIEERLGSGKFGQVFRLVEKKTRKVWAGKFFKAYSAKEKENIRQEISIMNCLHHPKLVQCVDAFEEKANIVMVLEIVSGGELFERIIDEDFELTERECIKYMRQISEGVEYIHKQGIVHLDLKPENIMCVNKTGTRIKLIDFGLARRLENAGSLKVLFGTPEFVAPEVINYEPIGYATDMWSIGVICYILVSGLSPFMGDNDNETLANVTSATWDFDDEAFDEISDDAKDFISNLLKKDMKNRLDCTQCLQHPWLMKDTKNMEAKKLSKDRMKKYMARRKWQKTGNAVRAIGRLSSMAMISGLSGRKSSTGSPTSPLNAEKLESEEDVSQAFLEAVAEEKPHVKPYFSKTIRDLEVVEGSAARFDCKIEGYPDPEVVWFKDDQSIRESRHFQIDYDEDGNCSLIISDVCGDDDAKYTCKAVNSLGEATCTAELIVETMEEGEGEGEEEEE

With `COc1ccc2nc(Nc3ccccc3)c3n[nH]cc3c2c1` [Example #13, (8-Methoxy-2H-pyrazolo[3,4-c]quinolin-4-yl)-phenyl-amine], at SYK kinase, the Ki was 10 to 100 nM. The values for the 50% inhibitory concentration (IC50) at MYLK (setting [1]) and on LRRK2 (setting [2]) were less than 5000 nM and 100 to 1000 nM, respectively.
On the same counts, the results for `Brc1ccc2nc(Nc3ccc4[nH]cnc4c3)c3n[nH]cc3c2c1` [Example #34, (1H-Benzoimidazol-5-yl)-(8-bromo-2H-pyrazolo[3,4-c]quinolin-4-yl)-amine] are 10 to 100 nM, less than 5000 nM and 100 to 1000 nM.
Turning to `COc1ccc2nc(Nc3ccc4[nH]ncc4c3)c3n[nH]cc3c2c1` [Example #38, (1H-Indazol-5-yl)-(8-methoxy-2H-pyrazolo[3,4-c]quinolin-4-yl)-amine], on SYK kinase, the Ki was 10 to 100 nM. In addition, the IC50 on MYLK (setting [1]) was less than 5000 nM; at LRRK2 (setting [2]) it was 100 to 1000 nM.
The matching figures for `COc1ccc2nc(Nc3ccc4[nH]cnc4c3)c3n[nH]cc3c2c1` [Example #39, (1H-Benzoimidazol-5-yl)-(8-methoxy-2H-pyrazolo[3,4-c]quinolin-4-yl)-amine]: 10 to 100 nM, less than 5000 nM and 100 to 1000 nM.
As to `COc1ccc2nc(Nc3ccc(C(N)=O)cc3)c3n[nH]cc3c2c1` [Example #58, 4-(8-Methoxy-2H-pyrazolo[3,4-c]quinolin-4-ylamino)-benzamide], the Ki at SYK kinase is 10 to 100 nM. The IC50 on MYLK (setting [1]) is less than 5000 nM.
As to `COc1ccc2nc(Nc3cccc(C(C)=O)c3)c3n[nH]cc3c2c1` [Example #127, 1-[3-(8-Methoxy-2H-pyrazolo[3,4-c]quinolin-4-ylamino)-phenyl]-ethanone], the values for the IC50 on MYLK (setting [1]) and on LRRK2 (setting [2]) were less than 5000 nM and 100 to 1000 nM, respectively.
Regarding `COc1ccc2nc(Nc3nccc(N)n3)c3n[nH]cc3c2c1` [Example #139, N2-(8-methoxy-2H-pyrazolo[3,4-c]quinolin-4-yl)pyrimidine-2,4-diamine], the Ki at SYK kinase was 100 to 1000 nM. The IC50 on MYLK (setting [1]) was less than 5000 nM.
`COc1ccc2nc(Nc3ccc4ncc(=O)[nH]c4c3)c3n[nH]cc3c2c1` [Example #194, 7-(8-Methoxy-2H-pyrazolo[3,4-c]quinolin-4-ylamino)-1H-quinoxalin-2-one]: the Ki at SYK kinase is 100 to 1000 nM. Further, the IC50 at MYLK (setting [1]) is less than 5000 nM.
The matching figures for `COc1cccc2c1nc(Nc1ccc(CN(C)C)cc1)c1n[nH]cc12` [Example #233, (4-Dimethylaminomethyl-phenyl)-(6-methoxy-2H-pyrazolo[3,4-c]quinolin-4-yl)-amine]: less than 10 nM and less than 5000 nM.
In the case of `COc1cccc2c1nc(Nc1ccccc1)c1n[nH]cc12` [Example #261, (6-Methoxy-2H-pyrazolo[3,4-c]quinolin-4-yl)-phenyl-amine], on SYK kinase, the Ki was 10 to 100 nM. On MYLK (setting [1]), the IC50 is less than 5000 nM.
For the molecule `COc1ccc2c(c1)nc(Nc1ccc3[nH]cnc3c1)c1n[nH]cc12` [Example #263, (1H-Benzoimidazol-5-yl)-(7-methoxy-2H-pyrazolo[3,4-c]quinolin-4-yl)-amine], the Ki on SYK kinase was less than 10 nM. Further, the IC50 at MYLK (setting [1]) was less than 5000 nM.
On the same counts, the results for `COc1cccc2c1nc(Nc1ccc(CN3CCN(C)CC3)cc1)c1n[nH]cc12` [Example #278, (6-Methoxy-2H-pyrazolo[3,4-c]quinolin-4-yl)-[4-(4-methyl-piperazin-1-ylmethyl)-phenyl]-amine] are 100 to 1000 nM and less than 5000 nM.
Regarding `COc1ccc2nc(Nc3cccc(C(=O)O)c3)c3n[nH]cc3c2c1` [Example #287, 3-((8-methoxy-2H-pyrazolo[3,4-c]quinolin-4-yl)amino)benzoic acid], at SYK kinase, the Ki is 100 to 1000 nM. In addition, the IC50 at MYLK (setting [1]) was less than 5000 nM.
The matching figures for `COc1ccc2nc(Nc3ccc4c(c3)NC(=O)CO4)c3[nH]ncc3c2c1` [Example #291, 6-((8-methoxy-2H-pyrazolo[3,4-c]quinolin-4-yl)amino)-2H-benzo[b][1,4]oxazin-3(4H)-one]: less than 10 nM and less than 5000 nM.
Consider `COc1ccc2nc(Nc3ccc(N4CCS(=O)(=O)CC4)cc3)c3n[nH]cc3c2c1` [Example #292, 4-(4-((8-methoxy-2H-pyrazolo[3,4-c]quinolin-4-yl)amino)phenyl)thiomorpholine 1,1-dioxide], for which, on SYK kinase, the Ki was less than 10 nM. Further, the IC50 on MYLK (setting [1]) is less than 5000 nM.
`COc1ccc2nc(Nc3ccc(C(=O)N4CCC(N5CCN(C)CC5)CC4)cc3OC)c3n[nH]cc3c2c1` [Example #295, (3-methoxy-4-((8-methoxy-2H-pyrazolo[3,4-c]quinolin-4-yl)amino)phenyl)(4-(4-methylpiperazin-1-yl)piperidin-1-yl)methanone]: the IC50 was less than 5000 nM on MYLK (setting [1]) and 10 to 100 nM at LRRK2 (setting [2]).
The matching figures for `COc1ccc2nc(Nc3ccc(C(=O)N4CCCN(C)CC4)cc3)c3n[nH]cc3c2c1` [Example #304, (4-((8-methoxy-2H-pyrazolo[3,4-c]quinolin-4-yl)amino)phenyl)(4-methyl-1,4-diazepan-1-yl)methanone]: less than 5000 nM and 100 to 1000 nM.
Regarding `COc1ccc2nc(Nc3ccc(C(=O)N4CCC(=O)CC4)cc3)c3n[nH]cc3c2c1` [Example #305, 1-(4-((8-methoxy-2H-pyrazolo[3,4-c]quinolin-4-yl)amino)benzoyl)piperidin-4-one], the IC50 at MYLK was less than 5000 nM; at LRRK2 (setting [3]), 10 to 100 nM.
The matching figures for `COc1ccc2nc(Nc3ccc(C(=O)N4CCC5(CC4)OCCO5)cc3)c3n[nH]cc3c2c1` [Example #306, (4-((8-methoxy-2H-pyrazolo[3,4-c]quinolin-4-yl)amino)phenyl)(1,4-dioxa-8-azaspiro[4.5]decan-8-yl)methanone]: less than 5000 nM and 10 to 100 nM.
Consider `COc1ccc2nc(Nc3ccc(C(=O)N4CCC(N(C)C)C4)cc3)c3n[nH]cc3c2c1` (stereo not drawn) [Example #307, (3-(dimethylamino)pyrrolidin-1-yl)(4-((8-methoxy-2H-pyrazolo[3,4-c]quinolin-4-yl)amino)phenyl)methanone], for which the IC50 was less than 5000 nM on MYLK (setting [1]) and 100 to 1000 nM at LRRK2 (setting [2]).
For the molecule `CN1CCN(c2ccc(Nc3nc4ccc(F)cc4c4cn[nH]c34)cc2)CC1` [Example #326, 8-fluoro-N-(4-(4-methylpiperazin-1-yl)phenyl)-3H-pyrazolo[3,4-c]quinolin-4-amine], the Ki at SYK kinase was 10 to 100 nM. In addition, the IC50 at MYLK (setting [1]) was less than 5000 nM.
The matching figures for `COc1ccc(Nc2nc3ccc(F)cc3c3cn[nH]c23)cc1OC` [Example #327, N-(3,4-dimethoxyphenyl)-8-fluoro-3H-pyrazolo[3,4-c]quinolin-4-amine]: 100 to 1000 nM and less than 5000 nM.
The matching figures for `CN1CCN(c2ccc(Nc3nc4cc(F)ccc4c4cn[nH]c34)cc2)CC1` [Example #337, 7-fluoro-N-(4-(4-methylpiperazin-1-yl)phenyl)-3H-pyrazolo[3,4-c]quinolin-4-amine]: 10 to 100 nM and less than 5000 nM.
On the same counts, the results for `COc1cc(Nc2nc3ccc(OC)cc3c3c[nH]nc23)cc(OC)c1` [Example #341, N-(3,5-dimethoxyphenyl)-8-methoxy-2H-pyrazolo[3,4-c]quinolin-4-amine] are 100 to 1000 nM and less than 5000 nM.
Turning to `COc1ccc2nc(Nc3cccc(S(=O)(=O)N4CCOCC4)c3)c3n[nH]cc3c2c1` [Example #349, 8-methoxy-N-(3-(morpholinosulfonyl)phenyl)-2H-pyrazolo[3,4-c]quinolin-4-amine], the Ki on SYK kinase was 100 to 1000 nM. The IC50 at MYLK (setting [1]) was less than 5000 nM.
On to `COc1ccc2nc(Nc3cccc(S(=O)(=O)C(F)(F)F)c3)c3n[nH]cc3c2c1` [Example #350, 8-methoxy-N-(3-((trifluoromethyl)sulfonyl)phenyl)-2H-pyrazolo[3,4-c]quinolin-4-amine], for which the Ki on SYK kinase is 100 to 1000 nM. For the same molecule, the IC50 at MYLK (setting [1]) was less than 5000 nM.
As for `COc1cccc2nc(Nc3ccc4c(c3)CN(C)C4)c3[nH]ncc3c12` [Example #352, 9-methoxy-N-(2-methylisoindolin-5-yl)-3H-pyrazolo[3,4-c]quinolin-4-amine], the IC50 was less than 5000 nM at MYLK (setting [1]) and 10 to 100 nM on LRRK2 (setting [2]).
Turning to `COc1ccc(Nc2nc3ccc(I)cc3c3cn[nH]c23)cc1OC` [Example #354, N-(3,4-dimethoxyphenyl)-8-iodo-3H-pyrazolo[3,4-c]quinolin-4-amine], on SYK kinase, the Ki was 100 to 1000 nM. Besides, at MYLK (setting [1]), the half-maximal inhibitory concentration (IC50) is less than 5000 nM.

(Values after patent US9499535B2, “Kinase inhibitors” (ORIGENIS GMBH, priority 2011, dated 2016).)
